Test results reported in PMC10218704, “A Novel Blood–Brain Barrier-Penetrating and Vascular-Targeting Chimeric Peptide Inhibits Glioma Angiogenesis” (International Journal of Molecular Sciences, 2023).
Ends that are not written are not given here.

Legend:
FAK = assay: Western blot, phosphorylation of FAK; assay type: cell-based, human; details: 320 μmol/L, 90 min, VEGF-A165 30 ng/mL, HUVECs, vs control, AT7, TAT, n = 3
Protocol: For Western blotting analysis, HUVECs were seeded into 6-well culture plates at 3 × 10^5 cells/well and incubated overnight. […] Two control groups (F-12K medium in the absence or presence of VEGF-A165) were set. The cells were washed with cold PBS and lysed with lysis buffer (protease and phosphatase inhibitors) on the ice for 30 min, and then centrifuged at 4 °C for 15 min at 14,000 r/min. The supernatant was collected, and its total protein concentration was determined by the BCA protein assay kit. Equal amounts of proteins were separated by 10% SDS-PAGE gels and transferred to polyvinylidene difluoride (PVDF) membranes. After blocking with 5% non-fat milk for 1 h, the membranes were incubated with specific antibodies at 4 °C overnight. Then, the membranes were washed with TBST (Tris-Buffered Saline with 0.1% Tween 20) and incubated with horseradish peroxidase (HRP)-conjugated secondary antibody for 1 h at room temperature. The proteins on the membranes were visualized with enhanced chemiluminescence agents.

[1] = compared with TAT or AT7 alone; cited from earlier work
Source text: Intracranial delivery of therapeutic agents is primarily hindered by the BBB [24]. The intercellular tight junction caused by the BBB restricts the passive diffusion of almost all large-molecule and more than 98% of small-molecule drugs from peripheral blood circulation to the brain tissue. TAT ([…]), one of the most promising cationic cell-penetrating peptides (CPPs), has been widely applied in drug delivery due to its high efficiency to facilitate the tissue penetration and internalization of cargos and break through a variety of biological barriers, such as cell membrane ...

HUVECs = assay: Transwell invasion assay; assay type: cell-based, human; details: 160 μmol/L; VEGF-A165 30 ng/mL; 24 h; n = 3
Protocol: Matrigel was diluted in serum-free F-12K medium (dilution ratio 1:5) and was coated onto each transwell chamber and incubated at 37 °C for 2 h. HUVECs were seeded in the upper compartment of the transwell chamber at a density of 2 × 10^4 cells/well. F-12K medium (containing 20% serum) was added to the lower chamber. […] Then, the medium was aspirated, and the chambers were washed with PBS and placed in a fixative for 30 min, stained with 0.1% crystal violet for 30 min, washed with PBS, and dried. An inverted fluorescence microscope was used to photograph the chambers, and the number of invaded cells was counted. The cells that migrated to the bottom of the chamber were photographed with an inverted microscope.

NRP-1 = system: NRP-1; parameters: method as in 2 sources, ref 21 = [21]; PMID 17983687; doi:10.1016/j.peptides.2007.09.013; 21. Starzec A. Ladam P. Vassy R. Badache S. Bouchemal N. Navaza A. du Penhoat C.H. Perret G.Y. Structure-function analysis of the antiangiogenic ATWLPPR peptide inhibiting VEGF (165) binding to neurop ||| ref 36 = [36]; PMID 11327725; doi:10.1006/bbrc.2001.4790; 36. Jia H. Lohr M. Jezequel S. Davis D. Shaikh S. Selwood D. Zachary I. Cysteine-rich and basic domain HIV-1 Tat peptides inhibit angiogenesis and induce endothelial cell apoptosis Biochem. Biophys. R; details: C-terminal LPPR essential; cited from earlier work

| Molecule | phosphorylation level of FAK (FAK) | BBB-penetration capability [1] | invasion rate (HUVECs) | effect on VEGF-A165 binding to NRP-1 (NRP-1) |
| --- | --- | --- | --- | --- |
| CC(C)C[C@H](NC(=O)[C@H](Cc1c[nH]c2ccccc12)NC(=O)[C@@H](NC(=O)[C@H](C)NC(=O)[C@H](CS)NC(=O)[C@H](CCCNC(=N)N)NC(=O)[C@H](CCCNC(=N)N)NC(=O)[C@H](CCCNC(=N)N)NC(=O)[C@H](CCC(N)=O)NC(=O)[C@H](CCCNC(=N)N)NC(=O)[C@H](CCCNC(=N)N)NC(=O)[C@H](CCCCN)NC(=O)[C@H](CCCCN)NC(=O)[C@@H](N)CCCNC(=N)N)[C@@H](C)O)C(=O)N1CCC[C@H]1C(=O)N1CCC[C@H]1C(=O)N[C@@H](CCCNC(=N)N)C(=O)O [TAT-AT7] | significantly inhibited the phosphorylation level | stronger BBB-penetration capabilities | significantly lower than that of the other groups | – |
| ATWLPPR [AT7, ATWLPPR] | – | – | – | inhibitory effect of AT7 on VEGF-A165 binding to NRP-1 |
